Assay results from publication PMC7323870 (Bioorganic & medicinal chemistry letters, 2010).
pIC50: −log10 of the molar value.

Target: HIV IN (Human immunodeficiency virus type 1 group M subtype B, UniProt P04585)
Experiment: HIV IN 3′ processing
Assay type: biochemical

Row | Compound | pIC50
1 | CNC(=O)c1nc(Cc2ccc(F)cc2)n(C)c(=O)c1O [compound 11] | < 3.48
2 | COCCNC(=O)c1nc(Cc2ccc(F)cc2)[nH]c(=O)c1O [compound 8] | < 3.48
3 | O=C(O)c1nc(Cc2ccc(F)cc2)[nH]c(=O)c1O [compound 10] | < 3.48
4 | CN(C)CCCNC(=O)c1nc(Cc2ccc(F)cc2)[nH]c(=O)c1O [compound 9] | < 3.48
5 | CNC(=O)c1nc(C)n(Cc2ccc(F)cc2)c(=O)c1O [compound 6] | < 3.48
6 | CNC(=O)c1nc(Cc2ccc(F)cc2)[nH]c(=O)c1O [compound 7] | < 3.48
